{"source": "patent US10342806B2", "about": "“Hormone treatment for age-related hearing loss-presbycusis” (priority 2014, dated 2019)", "key": {"[1]": {"test_system": "Spiral ganglion neuron (SGN)", "experiment": "Spiral ganglion neuron cell density, H&E staining of cochlear sections", "type": "in vivo, mouse", "conditions": "upper apical, lower apical, upper basal, lower basal regions; ALD-treated middle-aged mice vs untreated control mice", "description": "Death was confirmed by terminal phlebotomy/exsanguinations and perfusion.\nFor immunohistochemistry, mice were sacrificed, and one of the cochleae dissected, fixed in 4% paraformaldehyde in PBS overnight at 4° C., decalcification in 10% EDTA in PBS for a week at 4° C., and incubated in cryoprotection solution overnight at 4° C. The cochleae were embedded into degassed OCT overnight at 4° C., orientated into the cryomold with OCT degassed for 1 hour, then frozen at −80° C. Cryosectioning was performed at 5 μm per section. The cochlear cross sections were stained with hematoxylin and eosin (H&E) and MCR (H-300) (sc-11412, Santa Cruz Bio). The spiral ganglion neurons were counted by Metamorph imaging software (Molecular Devices, Center Valley, Pa. 18034-0610) and data analyzed by GraphPad Prism (GraphPad Software, Inc. La Jolla, Calif.).\nSpiral ganglion neuron (SGN) cell density was measured from 4 different topographical area, comparing ALD-treated middle-aged mice to age-matched controls. […] Further, this increase in SGN is correlated with ABR threshold shifts (shown below) in the same mice."}, "[2]": {"test_system": "NKCC1", "experiment": "86Rb uptake in HT-29 cells", "type": "cell-based, human", "conditions": "HT-29 cells, 2, 4, 8, and 12 h after ALD", "description": "Cell culture and buffers. […] Arch Oral Biol 52: 411-416, 2007). […] J Cell Sci 112: […], 1999, Epple, et al., Early aldosterone effect in distal colon by transcriptional regulation of ENaC subunits. Am J Physiol Gastrointest Liver Physiol 278: […] Am J Physiol Cell Physiol 305: […]-[…], 2013). HT-29 cells were grown in DMEM media (Invitrogen, Carlsbad Calif.) with 10% FBS and antibiotics. Cells were grown in a humidified 95%/5% CO2 incubator at 37° C. Experiments were performed at 70-80% confluence. ^86Rb uptake. Similar to previous studies of NKCC1 activity (Gagnon & Delpire, Molecular determinants of hyperosmotically activated NKCC1-mediated K_/K_exchange. J Physiol 588: 3385-3396, 2010), cells were plated on six-well dishes and incubated at 37° C./5% CO2 until confluent. For the uptake, cells were first washed twice with 1 ml of isosmotic saline (140 mM NaCl, 5 mM KCl, 2 mM CaCl2, 0.8 mM MgSO4, 5 mM glucose, 5 mM HEPES buffered to pH 7.4, and 300.5 mosM). […] After a 20-min uptake, the radioactive solution was aspirated, and the cells were washed three times with 1 ml of ice-cold solution, lysed for 1 h with 500 μl of 0.25 N NaOH, and neutralized with 250 μl of glacial acetic acid. ^86Rb tracer activity was measured by using 150 μl of lysate for γ-scintillation counting. […]"}, "[3]": {"test_system": "CBA/CaJ mice", "experiment": "Auditory brainstem response (ABR) thresholds in aging CBA/CaJ mice", "type": "in vivo, mouse", "description": "After 60 (2 months) or 120 days (4 months) of ALD implantation, mice were anesthetized with a combination of ketamine and xylazine (100 μl i.p. of sterile saline containing 100 mg/ml ketamine and […]) for ABR measurements.\nAuditory brainstem responses (ABRs) were measured again at 2 and 4 months after treatment started\nAuditory brainstem responses were obtained as follows. The mice were anesthetized with a mixture of ketamine/xylazine (120 and 10 mg/kg body weight, respectively, intraperitoneal injection) prior to all experimental sessions. All recording sessions were completed in a soundproof acoustic chamber (IAC) with body temperature maintained with a heating pad. ABRs were measured using Biosig (TDT, Alachua, Fla.) data-acquisition system which recorded responses to 5 ms tone pips ([…] rise-fall times) with a cos^2 onset envelope, presented at rate of 29/sec. Wave I threshold was defined as the lowest intensity which elicited a clearly replicable response. ABRs were measured pre-treatment and post-treatment at 2 and 4 mon. The pre-treatment ABR threshold was used as the baseline to calculate the thresholds shifts. The wave I peak-to-peak amplitudes were analyzed. Data was compared using GraphPad Prism 5.0 (GraphPad Software, Inc. La Jolla, Calif., USA.\nAs male mice weigh on average 28.0 g at week 9 and female mice 23.1 g, doses of the anti-inflammatory were designed to bracket a dose of 5 mg/kg/day. A total five groups (n=8, half male and half female) were tested. Treatment continued for 120 days or until the mouse was euthanized. […] Death was confirmed by terminal phlebotomy/exsanguinations and perfusion.\nMice were treated at middle age, as above, using 0.0016 mg/day of D-aldosterone, a combination of 0.0016 mg/day of D-aldosterone and 0.042 mg/day of Aspirin; and a control placebo (saline)."}, "[4]": {"test_system": "CBA mice", "conditions": "ALD-treated aging CBA mice (Halonen et al. 2014); cited from earlier work"}}}
{"smiles": "C[C@]12CCC(=O)C=C1CC[C@@H]1[C@@H]2[C@@H](O)C[C@]2(C=O)[C@@H](C(=O)CO)CC[C@@H]12", "note": "[ALD, aldosterone]", "values": [{"measurement": "SGN density", "setting": "[1]", "value": "SGN density was higher"}, {"measurement": "NKCC1 protein activity (86Rb uptake)", "setting": "[2]", "value": "upregulated NKCC1 protein activity"}, {"measurement": "ABR frequency response", "setting": "[3]; 12, 24, 32, 36 kHz at 2 months and 4 months, 0.0016 mg/day", "value": "showed improvement"}, {"measurement": "ABR thresholds, control vs ALD treated group", "setting": "[3]; 24, 32 and 36 kHz, at 120 days", "value": "significantly elevated in the control, non-treated, group relative to the ALD treated group"}, {"measurement": "ABR shift / ABR thresholds", "setting": "[3]; 24 kHz and 36 kHz, 2 and 4 month of treatment, vs placebo, Example 7", "value": "reduced ABR shifts"}, {"measurement": "ABR peak 1 amplitude", "setting": "[3]; high sound levels, relative to the control group", "value": "increased significantly at high sound levels"}, {"measurement": "dose optimal for ABR threshold improvements", "setting": "[3]; slow-release subcutaneous pellets, doses 0.00048 to 0.00476 mg/day, 60 or 120 days, relative to age-matched control mice", "value": 0.0016, "unit": "mg/day"}, {"measurement": "auditory temporal processing (prepulse inhibition)", "setting": "[4]", "value": "provocative increases in auditory temporal processing"}]}
